Measurements from patent US20250361230A1, “LATS Inhibitors and Uses Thereof” (The USA, as Represented by the Secretary, Dept. of Heath …, priority 2022, published 2025).
Read-outs that look alike come from different tables or passages of the source.

Tests used:
Assay type in all cases: biochemical
[1] = biological target: T1, LATS1 (Homo sapiens, UniProt O95835); experiment: RBC HotSpot kinase assay (33P-ATP, P81 filter-binding), LATS1
T1 sequence (O95835 1-1130): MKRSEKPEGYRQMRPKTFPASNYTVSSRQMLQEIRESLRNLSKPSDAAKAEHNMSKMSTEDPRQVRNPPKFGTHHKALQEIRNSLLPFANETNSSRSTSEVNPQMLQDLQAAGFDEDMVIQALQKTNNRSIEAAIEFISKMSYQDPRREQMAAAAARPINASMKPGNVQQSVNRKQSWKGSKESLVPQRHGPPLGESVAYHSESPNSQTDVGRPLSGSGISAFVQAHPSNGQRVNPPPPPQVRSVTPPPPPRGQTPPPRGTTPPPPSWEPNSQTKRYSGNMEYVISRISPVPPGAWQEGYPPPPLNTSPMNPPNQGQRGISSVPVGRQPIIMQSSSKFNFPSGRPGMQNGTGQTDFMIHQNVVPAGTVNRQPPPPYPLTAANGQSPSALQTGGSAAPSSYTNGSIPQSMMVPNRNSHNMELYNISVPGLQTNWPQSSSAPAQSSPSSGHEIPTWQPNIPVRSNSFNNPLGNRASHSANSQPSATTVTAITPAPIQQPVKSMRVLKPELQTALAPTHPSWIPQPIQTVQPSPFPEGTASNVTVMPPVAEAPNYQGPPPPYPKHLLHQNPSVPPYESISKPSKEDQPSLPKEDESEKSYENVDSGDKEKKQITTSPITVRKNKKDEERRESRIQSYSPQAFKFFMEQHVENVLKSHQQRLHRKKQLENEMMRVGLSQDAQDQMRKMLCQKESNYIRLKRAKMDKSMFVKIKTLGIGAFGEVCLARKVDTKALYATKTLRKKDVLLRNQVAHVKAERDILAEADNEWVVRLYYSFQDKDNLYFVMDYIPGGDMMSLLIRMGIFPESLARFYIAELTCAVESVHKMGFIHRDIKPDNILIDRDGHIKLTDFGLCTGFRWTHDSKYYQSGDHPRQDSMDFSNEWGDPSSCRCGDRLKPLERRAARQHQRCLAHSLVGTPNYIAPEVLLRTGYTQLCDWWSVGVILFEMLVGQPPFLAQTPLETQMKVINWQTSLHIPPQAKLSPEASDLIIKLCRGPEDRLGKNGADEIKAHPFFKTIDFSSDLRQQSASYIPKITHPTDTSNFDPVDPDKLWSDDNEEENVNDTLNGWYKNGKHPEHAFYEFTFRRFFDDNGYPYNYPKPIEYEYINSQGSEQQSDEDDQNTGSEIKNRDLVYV
Procedure, shortened: (§1)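 Radiometric 33P-ATP kinase reaction in 20 mM Hepes pH 7.5, 10 mM MgCl2, 1 mM EGTA, 0.01% Brij35, 0.02 mg/ml BSA, 0.1 mM Na3VO4, 2 mM DTT, 1% DMSO. Compound preincubated with kinase and substrate 20 min, then 2 h at room temperature; P81 filter-binding read-out. IC50 (nM) from 10-point singlet curves.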

[2] = biological target: T2, LATS2 (Homo sapiens, UniProt Q9NRM7); experiment: RBC HotSpot kinase assay (33P-ATP, P81 filter-binding), LATS2
T2 sequence (Q9NRM7 1-1088): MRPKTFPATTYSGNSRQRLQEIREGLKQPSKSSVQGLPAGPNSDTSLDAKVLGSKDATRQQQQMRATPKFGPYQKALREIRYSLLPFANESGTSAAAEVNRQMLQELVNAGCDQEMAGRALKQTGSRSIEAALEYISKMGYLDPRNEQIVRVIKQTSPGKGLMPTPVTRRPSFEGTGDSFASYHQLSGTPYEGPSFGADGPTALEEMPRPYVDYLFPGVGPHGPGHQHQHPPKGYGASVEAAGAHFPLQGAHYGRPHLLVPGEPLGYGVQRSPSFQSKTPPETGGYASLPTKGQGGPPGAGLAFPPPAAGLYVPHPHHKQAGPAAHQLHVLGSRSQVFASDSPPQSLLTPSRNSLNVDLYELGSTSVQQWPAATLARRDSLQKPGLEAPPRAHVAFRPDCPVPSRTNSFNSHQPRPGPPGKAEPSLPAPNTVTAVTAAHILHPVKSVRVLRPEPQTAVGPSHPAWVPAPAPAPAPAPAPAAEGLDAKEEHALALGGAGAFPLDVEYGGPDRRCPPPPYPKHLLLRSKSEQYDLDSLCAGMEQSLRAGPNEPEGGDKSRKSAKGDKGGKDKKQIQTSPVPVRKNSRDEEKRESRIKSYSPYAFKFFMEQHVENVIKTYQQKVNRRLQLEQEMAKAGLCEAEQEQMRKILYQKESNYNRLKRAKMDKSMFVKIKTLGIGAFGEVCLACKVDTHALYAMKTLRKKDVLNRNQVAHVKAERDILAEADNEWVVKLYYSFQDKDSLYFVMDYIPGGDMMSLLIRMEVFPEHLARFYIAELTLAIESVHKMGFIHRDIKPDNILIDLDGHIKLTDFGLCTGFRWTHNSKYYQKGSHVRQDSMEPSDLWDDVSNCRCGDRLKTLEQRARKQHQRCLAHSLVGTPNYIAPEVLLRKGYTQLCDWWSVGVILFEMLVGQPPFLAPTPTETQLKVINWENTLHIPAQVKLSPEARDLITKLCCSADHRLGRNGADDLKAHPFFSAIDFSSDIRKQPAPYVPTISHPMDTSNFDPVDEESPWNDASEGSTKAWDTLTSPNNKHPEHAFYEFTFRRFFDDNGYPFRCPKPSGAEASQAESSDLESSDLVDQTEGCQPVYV
Procedure, shortened: as §1

[3] = biological target: AKT (Homo sapiens, UniProt P31749); experiment: RBC HotSpot kinase assay (33P-ATP, P81 filter-binding), AKT
AKT, sequence (P31749 whole entry): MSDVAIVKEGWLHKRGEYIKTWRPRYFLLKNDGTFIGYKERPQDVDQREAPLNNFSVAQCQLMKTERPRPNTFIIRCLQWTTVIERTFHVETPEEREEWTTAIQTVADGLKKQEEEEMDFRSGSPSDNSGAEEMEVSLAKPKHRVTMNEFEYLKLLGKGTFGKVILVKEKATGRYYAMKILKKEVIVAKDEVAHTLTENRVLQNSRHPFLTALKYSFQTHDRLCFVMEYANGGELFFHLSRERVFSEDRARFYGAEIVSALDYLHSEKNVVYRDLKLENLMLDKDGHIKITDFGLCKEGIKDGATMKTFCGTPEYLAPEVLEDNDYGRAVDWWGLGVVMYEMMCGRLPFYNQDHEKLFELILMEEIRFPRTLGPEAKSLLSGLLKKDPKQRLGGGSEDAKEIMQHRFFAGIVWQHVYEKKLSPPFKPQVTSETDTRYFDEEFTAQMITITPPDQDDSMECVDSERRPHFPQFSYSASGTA
Procedure, shortened: as §1

[4] = Table 28, biochemical kinase assay, read-out: LATS1 IC50
[5] = Table 28, biochemical kinase assay, read-out: LATS2 IC50
[6] = Table 28, biochemical kinase assay, read-out: AKT IC50

| SMILES | IC50 [1, 4] | IC50 [2, 5] | IC50 [3, 6] | further results |
| --- | --- | --- | --- | --- |
| C[C@@H]1CN(C(=O)C2CC(C)(C)C2)C[C@H](C)C1(O)c1c(F)cc(-c2ccnc3[nH]cc(F)c23)cc1F (stereo partly drawn) [Compound 72, ((3S,5R)-4-(2,6-difluoro-4-(3-fluoro-1H-pyrrolo[2,3-b]pyridin-4-yl)phenyl)-4-hydroxy-3,5-dimethylpiperidin-1-yl)(3,3-dimethylcyclobutyl) methanone] | 27.4 nM | 60 nM | > 10000 nM | – |
| CC(C)(C)Nc1cc(-c2ccnc3[nH]cc(F)c23)ccc1C1CCNCC1 [Compound 156, N-(tert-butyl)-5-(3-fluoro-1H-pyrrolo[2,3-b]pyridin-4-yl)-2-(piperidin-4-yl)aniline] | 139 nM | 121 nM | 1120 nM | – |
| C[C@@H]1CN(C)C[C@H](C)[C@@]1(O)c1ccc(-c2ccnc3[nH]ccc23)cc1 [Compound 38, (3R,4s,5S)-4-(4-(1H-pyrrolo[2,3-b]pyridin-4-yl)phenyl)-1,3,5-trimethylpiperidin-4-ol] | 28 nM | 27 nM | 181 nM | – |
| CN1CC2CC(C1)C2(O)c1ccc(-c2ccnc3[nH]cc(F)c23)cc1Cl (stereo not drawn) [Compound 134, 6-(2-chloro-4-(3-fluoro-1H-pyrrolo[2,3-b]pyridin-4-yl)phenyl)-3-methyl-3-azabicyclo[3.1.1]heptan-6-ol] | 43.5 nM | 116 nM | 788 nM | – |
| Cc1cc(-c2ccnc3[nH]cc(F)c23)cc(F)c1C1(O)[C@H](C)CN(C2CCOCC2)C[C@@H]1C (stereo partly drawn) [Compound 33, (3S,5R)-4-(2-fluoro-4-(3-fluoro-1H-pyrrolo[2,3-b]pyridin-4-yl)-6-methylphenyl)-3,5-dimethyl-1-(tetrahydro-2H-pyran-4-yl)piperidin-4-ol] | 3.4 nM | 1.9 nM | 474 nM | – |
| NCC(O)(c1ccc(Cl)cc1)c1ccc(-c2ccnc3[nH]cc(Cl)c23)cc1 (stereo not drawn) [Compound 1003, 2-amino-1-(4-(3-chloro-1H-pyrrolo[2,3-b]pyridin-4-yl)phenyl)-1-(4-chlorophenyl) ethan-1-ol] | – | – | – | IC50 ([1]; Table 32, biochemical kinase assay, read-out: LATS1 IC50): 31.7 nM; IC50 ([2]; Table 32, biochemical kinase assay, read-out: LATS2 IC50): 12 nM; IC50 ([3]; Table 32, biochemical kinase assay, read-out: AKT IC50): 3.2 nM |
| C[C@@H]1CN(Cc2ccncc2)C[C@H](C)[C@@]1(O)c1c(F)cc(-c2ccnc3[nH]cc(F)c23)cc1F [Compound 19, (3S,4s,5R)-4-(2,6-difluoro-4-(3-fluoro-1H-pyrrolo[2,3-b]pyridin-4-yl)phenyl)-3,5-dimethyl-1-(pyridin-4-ylmethyl)piperidin-4-ol] | 11 nM | 9.2 nM | 1020 nM | – |
| COC(=O)C1(c2ccc(-c3ccnc4[nH]cc(F)c34)cc2)CCN(C)CC1 [Compound 193, Methyl 4-(4-(3-fluoro-1H-pyrrolo[2,3-b]pyridin-4-yl)phenyl)-1-methylpiperidine-4-carboxylate] | – | – | – | IC50 [1]: 53 nM; IC50 [2]: 26 nM; IC50 [3]: 128 nM |
| Cc1cc(-c2ccnc3[nH]cc(F)c23)cc(F)c1[C@@]1(O)[C@H](C)CN(C(=O)[C@@H]2C[C@H](O)CN2)C[C@@H]1C [Compound 70, ((3S,4R,5R)-4-(2-fluoro-4-(3-fluoro-1H-pyrrolo[2,3-b]pyridin-4-yl)-6-methylphenyl)-4-hydroxy-3,5-dimethylpiperidin-1-yl)((2S,4S)-4-hydroxypyrrolidin-2-yl)methanone] | 7.8 nM | 2.5 nM | 376 nM | – |
| C[C@@H]1CN(C2CCS(=O)(=O)CC2)C[C@H](C)C1(O)c1cnc(-c2ccnc3[nH]cc(F)c23)cc1F (stereo partly drawn) [Compound 35, 4-((3S,5R)-4-(4-fluoro-6-(3-fluoro-1H-pyrrolo[2,3-b]pyridin-4-yl)pyridin-3-yl)-4-hydroxy-3,5-dimethylpiperidin-1-yl)tetrahydro-2H-thiopyran 1,1-dioxide] | 99.4 nM | 63.4 nM | 2080 nM | – |
| CC(C)c1cc(-c2ccnc3[nH]cc(Cl)c23)ccc1CN [Compound 232, (4-(3-chloro-1H-pyrrolo[2,3-b]pyridin-4-yl)-2-isopropylphenyl) methanamine] | 3.3 nM | 11.6 nM | 60.5 nM | – |
